Results from article PMC6279743, “A small molecule ApoE4-targeted therapeutic candidate that normalizes sirtuin 1 levels and improves cognition in an Alzheimer’s disease mouse model” (Scientific Reports, 2018).

Test system: E4FAD mice
Assay: Y maze Forced Alternation in 56-day study
Type: in vivo
Details: minute 1 or by 5 minutes
Procedure: Study mice also underwent Forced Alternation (FA) tests in a Y maze apparatus[74],[75]. Details of the method can be found in Supplementary Methods. Briefly, individual test mice are prevented from entering one of three arms of the maze in the first 5 minute trial and after 30 minutes is returned to maze wherein the blocked arm is available. Time in Novel Arm C [%] was defined as the time spent in the novel arm divided by the time spent in all arms during the first minute.
A small molecule ApoE4-targeted therapeutic candidate that normalizes sirtuin 1 levels and Improves cognition in an Alzheimer’s disease mouse model
Jesus Campagna, Patricia Spilman, Barbara Jagodzinska, Dongsheng Bai, Asa Hatami, Chunni Zhu, Tina Bilousova, Michael Jun, Chris Jean Elias, Johnny Pham, Gregory Cole, Mary Jo LaDu, Michael E. Jung, Dale E. Bredesen, and […]
Confirmation assay in A172-E4 cells. […]
Cells were incubated with the compound for 60 hrs, then cell culture medium (for sAPPα) and cells (lysates for SirT1) were harvested and levels of sAPPα and SirT1 determined by AlphaLISA. […]
PAMPA. […] The parameters determined are Tr = retention time of compound; KIAM= (Tr-T0)/T0; T0= is the delay time of the column, determined by use of 100 µg/mL citric acid) and was T0= 1.24 min; and (KIAM/MW4)*10-(10). […]
Forced Alternation. […] An arm entry was recorded when all 4 paws of the mouse entered the arm. […]

SMILES: CC(N)C(=O)OC(C)(C)Cc1ccc(Cl)cc1 (stereo not shown) [A03, alaproclate]
- Y maze FA, entries into the Novel Arm C: no significant differences amongst groups
